Measurements taken from US8030358B2, “Methods and pharmaceutical compositions for decorporation of radioactive compounds” (priority 2007, dated 2011).

Key:
[1] = Bioavailability study (oral C2E5 vs intravenous DTPA); assay type: in vivo, rat
Protocol: A bioavailability study was conducted in which five rats were intravenously administered 5 mg of DTPA and another 5 rats were orally administered an equivalent […] dose (approximately 7 mg) of C2E5 in a 10% ethanol solution. Blood samples were obtained at regular intervals from an in-dwelling catheter that had been surgically implanted prior to the administration of the doses.

[2] = Small Animal Decorporation Efficacy Study; assay type: in vivo; details: rats; oral C2E5 compared with IV administration of equivalent doses of DTPA

Structure (SMILES): CCOC(=O)CN(CCN(CC(=O)OCC)CC(=O)OCC)CCN(CC(=O)OCC)CC(=O)OCC [C2E5, DTPA Pentaethyl Ester]
- bioavailability ([1]; rat model, oral, approximately 7 mg C2E5 in a 10% ethanol solution, compared with 5 mg DTPA intravenously): ~100%
- C2E5 detected in the plasma ([1]; rat, after oral C2E5 in a 10% ethanol solution): no C2E5 can be detected in the plasma
- conversion to DTPA after absorption from the gastrointestinal tract ([1]; rat, oral C2E5): quantitatively and rapidly converted to DTPA
- blood concentration profile compared to IV DTPA ([1]; rat, oral C2E5 vs 5 mg DTPA intravenously): lower blood levels and a longer duration compared to IV DTPA
- decorporation of ^241Am [2]: compared favorably
